Reference: patent US8252832B2, “Kinesin inhibitors as cancer therapeutics” (Novartis AG, priority 2007, dated 2012)
Values joined by “and” are separate entries in the source; they are usually repeats but may differ in a detail not shown here. Equal entries are not always repeated. Where two headings read alike, the source gives them in different places. Marks after values point to notes of the source that are not given here.

Key:
HCT15 tumor xenograft = HCT15 tumor xenograft model, tumor response; type: in vivo, mouse
Description: (§1) Routine animal care and assurance of welfare were as described above.
Human HCT15 colon carcinoma cells were obtained from the National Cancer Institute's DCTD Tumor Repository (catalog #NCI-502711, Rockville, Md.). HCT15 cells were grown in RPMI 1640 with 2 mM L-glutamine (Mediatech Inc., catalog #15-040-CV) supplemented with 10% fetal bovine serum (JRH Biosciences, catalog #12003-1000M). The cells were tested to be free of Mycoplasma sp. and murine viruses in the IMPACT1 PCR assay panel (RADIL, University of Missouri, Columbia, Mo.)
These cells were grown as adherent cultures, maintained at 37° C. in a humidified atmosphere containing 5% carbon dioxide. Cells were cultured for fewer than 10 passages prior to use. Cells were harvested at 95% confluency, and centrifuged at ˜800×g for 5 minutes at 4° C. and then resuspended in a 1:1 ratio of HBSS (Mediatech Inc., catalog #21-021-CV) plus Matrigel™ at a concentration of 50 million cells/mL for implantation subcutaneously (injection volume of 0.2 mL).
(§2) Treatments for the efficacy studies were initiated 10 days following tumor cell implantation when tumors were approximately 300 mm^3. Compound IIa and SB-715992 were administered intravenously (i.v.) via the tail vein in a volume of 8 mL/kg at the doses indicated. Paclitaxel was administered intraperitoneally (i.p.) in a volume of 16 mL/kg at 30 mg/kg.
(§3) Tumor volume was calculated as (L×W2)/2. […] Data was analyzed as described above.

[1] = HCT15 tumor xenograft model, host response; type: in vivo, mouse
Description: as §1, §2, §3

[2] = tested on: human multiple myeloma KMS-11-luc tumor xenografts; assay: Subcutaneous KMS-11-luc tumor xenograft model, tumor response; type: in vivo, mouse
Description: (§4) Experiments were performed using immunodeficient SCID-Beige female mice approximately 7-8 weeks old (Charles River Laboratories, Wilmington, Mass.). […] Routine animal care and assurance of welfare were as described above.
Human KMS-11-luc multiple myeloma cells were obtained from the laboratory of Suzanne Trudel at the University of Toronto (Ontario, Canada) and tested to be free of Mycoplasma sp. and murine viruses in the IMPACT1 PCR assay panel (RADIL, University of Missouri, Columbia, Mo.). Prior to our receiving this cell line, it had been stably engineered to express luciferase by retroviral transfection of the pGC-gfp/luc vector. KMS-11-luc cells were grown in Iscove's medium supplemented with 2 mmol/L L-glutamine (Mediatech, Inc., Hemdon, Va.) and 10% fetal bovine serum (JRH Biosciences, catalog #12003-1000M). These cells were grown as suspension cultures, maintained at 37° C. in a humidified atmosphere containing 5% carbon dioxide. Cells were cultured for fewer than 10 passages prior to use. Cells were harvested at approximately 2 million cells/mL, and centrifuged at ˜800×g for 5 minutes at 4° C. and then resuspended in a 1:1 mixture of cold Hank's balanced salt solution (HBSS) and Matrigel™ (Mediatech Inc., catalog #21-021-CV; BD Biosciences, catalog #354234, respectively) at a concentration of 50 million cells/mL for implantation subcutaneously (injection volume of 0.2 mL). Alternatively, for the disseminated disease model, cells were prepared only in cold HBSS at a concentration of 100 million cells/mL for intravenous (i.v.) implantation via the tail vein (injection volume of 0.1 mL).
(§5) Compound IIa and SB-715992 (free base) were formulated in 20% Captisol for a dose volume of 8 mL/kg. Doses were adjusted to each animal's body weight.
(§6) For the efficacy evaluation in the subcutaneous tumor model, 10 million cells combined in a 1:1 mixture of HBSS and Matrigel™ were injected subcutaneously in the right flank in a total volume of […]. […] Tumor volume was calculated as (L×W2)/2. […] Data analysis was as described above.

[3] = Subcutaneous KMS-11-luc tumor xenograft model, host response; type: in vivo, mouse
Description: as §4, §5, §6

[4] = q4d × 3
Description: Experiments were performed using outbred athymic nu/nu mice (Charles River Laboratories) approximately 6-8 weeks old. Upon arrival, animals received a subcutaneous microchip implant (AVID, Folsom, La.) in the subscapular region for identification of individuals. Animals were allowed to acclimatize for 1 week before any experimental procedures began.
Compound IIa, compound IIc, compound IIa (shown below), and SB-715992 were formulated in a Captisol®-based formulation. Doses were administered intravenously (i.v.) and adjusted to each animal's body weight. Formulations were made once at the beginning of study and stored at room temperature. Clinical grade paclitaxel was purchased pre-mixed in a cremophor-based vehicle (Mayne Pharma, now Hospira, Lake Forest, Ill., catalog #NDC-6170334209) and diluted in sterile saline to provide a dose volume of 16 mL/kg for a 30 mg/kg dose administered intraperitoneally (i.p.)
For the efficacy studies, mice were enrolled with a mean tumor volume of approximately 300 mm^3. Tumor xenografts were measured in two dimensions (L and W) with digital calipers twice weekly from the start of dosing on Day 0. Tumor volume was calculated as (L×W^2)/2. Body weights were measured twice weekly and clinical observations were recorded daily. Tumor volume and body weights were captured and stored by StudyDirector software (StudyLog, South San Francisco, Calif.).

With `CC(C)(C)[C@H](c1nc(-c2cc(F)ccc2F)cn1Cc1ccccc1)N(CC[C@H](N)CF)C(=O)CO` [Compound IIa] the “Δ Tumor volume, Day 15” value (HCT15 tumor xenograft; 1.25 mg/kg, q4d × 3, i.v) was 671 ± 172 mm^3, the “ΔT/ΔC, Day 15 (%)” value (HCT15 tumor xenograft; 1.25 mg/kg, q4d × 3, i.v) was 60% and the “Δ Tumor volume, Day 15” value (HCT15 tumor xenograft; 2.5 mg/kg, q4d × 3, i.v) was 735 ± 159 mm^3. The “ΔT/ΔC, Day 15 (%)” value (HCT15 tumor xenograft; 2.5 mg/kg, q4d × 3, i.v) was 65%, the “Δ Tumor volume, Day 15” value (HCT15 tumor xenograft; 4.0 mg/kg, q4d × 3, i.v) was 99 ± 78 mm^3 and the “ΔT/ΔC, Day 15 (%)” value (HCT15 tumor xenograft; 4.0 mg/kg, q4d × 3, i.v, listed as COMPOUND IIa) was 26* %. For the same compound, the “ΔT/ΔC, Day 15 (%)” value (HCT15 tumor xenograft; 4.0 mg/kg, q4d × 3, i.v, listed as compound IIa) was 26%, the “Survival (alive/total)” value ([1]; 1.25 mg/kg, q4d × 3, i.v) was 9/9 and the “Survival (alive/total)” value ([1]; 2.5 mg/kg, q4d × 3, i.v) was 9/9. For the same compound, the “Survival (alive/total)” value ([1]; 4.0 mg/kg, q4d × 3, i.v) was 9/9, the “T/C, Day 31 (%)” value ([2]; 0.25 mg/kg, Q4d × 3, i.v) was 25% and the “Δ Tumor volume, Day 31” value ([2]; 0.25 mg/kg, Q4d × 3, i.v) was 527 ± 152 mm^3. The “Max. % Regression (Day)” value ([2]; 0.25 mg/kg, Q4d × 3, i.v, D7) was 24 (D7) %, the “T/C, Day 31 (%)” value ([2]; 0.5 mg/kg, Q4d × 3, i.v) was 10% and the “Δ Tumor volume, Day 31” value ([2]; 0.5 mg/kg, Q4d × 3, i.v) was 221 ± 71 mm^3. The “Max. % Regression (Day)” value ([2]; 0.5 mg/kg, Q4d × 3, i.v, D10) was 42 (D10) %, the “T/C, Day 31 (%)” value ([2]; 1 mg/kg, Q4d × 3, i.v) was 0.1* % and the “Δ Tumor volume, Day 31” value ([2]; 1 mg/kg, Q4d × 3, i.v) was 1.5 ± 26 mm^3. The “Max. % Regression (Day)” value ([2]; 1 mg/kg, Q4d × 3, i.v, D17, listed as COMPOUND IIa) was 56 (D17) %, the “Max. % Regression (Day)” value ([2]; 1 mg/kg, Q4d × 3, i.v, D17, listed as compound IIa) was 56% and the “Survival (alive/total)” value ([3]; 0.25 mg/kg, Q4d × 3, i.v) was 9/9. For the same compound, the “Survival (alive/total)” value ([3]; 0.5 mg/kg, Q4d × 3, i.v) was 9/9, the “Survival (alive/total)” value ([3]; 1 mg/kg, Q4d × 3, i.v) was 8/9 and the “Survival (alive/total)” value ([4]; 5 mg/kg, i.v.) was 9/9. For the same compound, the “% Max. Δ body weight, (Day)” value ([4]; 5 mg/kg, i.v., D11) was −2 (D11) %.
For `CC(=O)O[C@H]1C(=O)[C@@]2(C)[C@H]([C@H](OC(=O)c3ccccc3)[C@]3(O)C[C@H](OC(=O)[C@H](O)[C@@H](NC(=O)c4ccccc4)c4ccccc4)C(C)=C1C3(C)C)[C@]1(OC(C)=O)CO[C@@H]1C[C@@H]2O` [Paclitaxel, reference compound], the “Δ Tumor volume, Day 15” value (HCT15 tumor xenograft; 30 mg/kg, Q4d × 3, i.p.) was 703 ± 198 mm^3, the “ΔT/ΔC, Day 15 (%)” value (HCT15 tumor xenograft; 30 mg/kg, Q4d × 3, i.p.) was 104% and the “Survival (alive/total)” value ([1]; 30 mg/kg, Q4d × 3, i.p.) was 9/9. The “T/C, Day 31 (%)” value ([2]; 30 mg/kg, Q4d × 3, i.p.) was 30%, the “Δ Tumor volume, Day 31” value ([2]; 30 mg/kg, Q4d × 3, i.p.) was 640 ± 190 mm^3 and the “Max. % Regression (Day)” value ([2]; 30 mg/kg, Q4d × 3, i.p., D3) was 5 (D3) %. For the same compound, the “Survival (alive/total)” value ([3]; 30 mg/kg, Q4d × 3, i.p.) was 9/9, the “Survival (alive/total)” value ([4]; 30 mg/kg, i.p.) was 9/9 and the “Survival (alive/total)” value ([4]; Table 14 study, 30 mg/kg, i.p.) was 9/9. The “Survival (alive/total)” value ([4]; Table 15 study, 30 mg/kg, i.p.) was 10/10.
In the case of `Cc1ccc(C(=O)N(CCCN)[C@@H](c2nc3cc(Cl)ccc3c(=O)n2Cc2ccccc2)C(C)C)cc1` [SB-715992, Ispinesib, reference compound], the “Δ Tumor volume, Day 15” value (HCT15 tumor xenograft; 7.5 mg/kg, q4d × 3, i.v) is reported as 647 ± 164 mm^3, the “ΔT/ΔC, Day 15 (%)” value (HCT15 tumor xenograft; 7.5 mg/kg, q4d × 3, i.v) is reported as 87% and the “Δ Tumor volume, Day 15” value (HCT15 tumor xenograft; 15 mg/kg, q4d × 3, i.v.) is reported as 491 ± 109 mm^3. The “ΔT/ΔC, Day 15 (%)” value (HCT15 tumor xenograft; 15 mg/kg, q4d × 3, i.v.) was 67%, the “Survival (alive/total)” value ([1]; 7.5 mg/kg, q4d × 3, i.v) was 9/9 and the “Max. Δ body weight (Day)” value ([1]; 7.5 mg/kg, q4d × 3, i.v, D8) was 0.6 ± 0.2 g. For the same compound, the “Max. Δ body weight (Day) (%)” value ([1]; 7.5 mg/kg, q4d × 3, i.v, D8) was 2.6 ± 1.0%, the “Survival (alive/total)” value ([1]; 15 mg/kg, q4d × 3, i.v.) was 9/9 and the “Max. Δ body weight (Day)” value ([1]; 15 mg/kg, q4d × 3, i.v, D10) was -1.2 ± 0.4 g. The “Δ Tumor volume, Day 31” value ([2]; 7.5 mg/kg, Q4d × 3, i.v.) was −46 ± 19 mm^3, the “Max. % Regression (Day)” value ([2]; 7.5 mg/kg, Q4d × 3, i.v., D14) was 49% and 49, (D14) % and the “Survival (alive/total)” value ([3]; 7.5 mg/kg, Q4d × 3, i.v.) was 9/9. For the same compound, the “Max. Δ body weight (Day)” value ([3]; 7.5 mg/kg, Q4d × 3, i.v., D10) was -0.96 ± 0.31 g, the “Max. Δ body weight (Day) (%)” value ([3]; 7.5 mg/kg, Q4d × 3, i.v., D10) was −4.8 ± 1.93% and the “Survival (alive/total)” value ([4]; 15 mg/kg, i.v.) was 9/9. For the same compound, the “% Max. Δ body weight, (Day)” value ([4]; 15 mg/kg, i.v., D7) was 4 (D7) %, the “Survival (alive/total)” value ([4]; Table 14 study, 15 mg/kg, i.v.) was 9/9 and the “% Max. Δ body weight, (Day)” value ([4]; Table 14 study, 15 mg/kg, i.v., D4) was −1 (D4) %. The “Survival (alive/total)” value ([4]; Table 15 study, 15 mg/kg, i.v.) was 10/10 and the “% Max. Δ body weight, (Day)” value ([4]; Table 15 study, 15 mg/kg, i.v., D11) was −3 (D11) %.
